Experimental data taken from patent US6335357B1, “Pyrazole derivatives, process for preparing the same, intermediates, and pest control agent containing the same as active ingredient” (Mitsubishi Chemical Corporation, priority 1997, dated 2002).

What was measured:
Format in all cases: in vivo
CD-1 male mice = assay: Single oral dose administration test in mice (acute toxicity, Test Example 7); details: 300 mg/kg single oral dose in 0.5% CMC-Na, after 7 days
Procedure: Single Oral Dose Administration Test in Mice:
Acute toxicity (p.o.) compound No. 1 in mice was examined as follows. For comparison, compound IV disclosed in an unexamined published Japanese patent application 63-316771 was tested similarly.
Each test compound (300 mg) was suspended in 10 ml of a 0.5% CMC-Na aqueous solution. Five 6-week-old CD-1 male mice (available from Charles River) per group were forced to take an oral dose of 10 ml/kg of the suspension. The number of dead mice was counted after 7 days from the administration to obtain a death rate.

Nilaparvata lugens = assay: Insecticidal effect on larvae of Nilaparvata lugens (Test Example 1); details: 500 ppm; 4th instar larvae on rice seedling, sprayed emulsion; after 5 days at 25° C.
Procedure: Insecticidal Effect on Larvae of Nilaparvata lugens:
A rice seedling was planted in a glass cylinder (inner diameter: 3 cm; length: 17 cm), and five 4th instar larvae of Nilaparvata lugens were set free therein. An agricultural and horticultural insecticide was prepared in accordance with Formulation Example 3 and diluted with water, and 0.5 ml of the resulting emulsion was sprayed in the cylinder by means of a spray tower (manufactured by Mizuho Rika) (duplicates at a concentration). The cylinder was kept in a thermostat at 25° C., and the mortality and agony of the larvae were examined after 5 days from the treatment to obtain a death rate (%) taking an agonizing insect as a ½ dead insect.

Plutella xylostella [1] = assay: Insecticidal effect on larvae of Plutella xylostella (Test Example 2); details: 500 ppm; 3-instar larvae, cabbage leaf disc soaked in suspension; after 4 days at 25° C.
Procedure: Insecticideal Effect on Larvae of Plutella xylostella:
A disc (6 cm in diameter) cut out of a cabbage leaf was soaked in an aqueous suspension of the agricultural and horticultural insecticide prepared in accordance with Formulation Example 1 for 1 minute, air-dried, and placed in a plastic cup (inner diameter: 7 cm). Five 3-instar larvae of Plutella xylostella were set free in the cup (duplicates at a concentration). The cup was kept in a thermostat at 25° C., and the death and agony of the larvae were examined after 4 days from the treatment to obtain a death rate (%) taking an agonizing insect as a ½ dead insect. The results obtained are shown in Table 3 (the compound numbers in the Table below correspond to the numbers in Table 1).

Spodoptera litura [2] = assay: Insecticidal effect on larvae of Spodoptera litura (Test Example 3); details: 500 ppm; 3-instar larvae, cabbage leaf disc soaked in suspension; after 5 days at 25° C.
Procedure: Insecticidal Effect on Larvae of Spodoptera litura:
A disc (6 cm in diameter) cut out of a cabbage leaf was soaked in an aqueous suspension of an agricultural and horticultural insecticide prepared in accordance with Formulation Example 1 for 1 minute, air-dried, and placed in a plastic cup (inner diameter: 7 cm). Five 3-instar larvae of Spodoptera litura were set free in the cup (duplicates at a concentation). The cup was kept in a thermostat at 25° C., and the death and agony of the larvae were examined after 5 days from the treatment to obtain a death rate (%) taking an agonizing insect as a ½ dead insect. The results obtained are show in Table 4 (the compound numbers in the Table below correspond to the numbers in Table 1).

Callosobruchus chinensis = assay: Insecticidal effect on imagoes of Callosobruchus chinensis (Test Example 4); details: 500 ppm, sprayed emulsion, after 4 days at 25° C.
Procedure: Insecticidal Effect on Imagoes of Callosobruchus chinensis:
Two adzuki beans were put in a glass cylinder (inner diameter: 3 cm; length: 15 cm), and 10 imagoes of Callosobruchus chinensis were set free therein. An agricultural and horticultural insecticide was prepared in accordance with Formulation Example 3 and diluted with water, and 0.3 ml of the resulting emulsion was sprayed in the glass cylinder by means of a spray tower (manufactured by Mizuho Rica) (duplicates at a concentration). The cylinder was kept in a thermostat at 25° C., and the mortality and agony of the larvea were examined after 4 days from the treatment to obtain a death rate (%) taking an agonizing insect as a ½ dead insect.

Myzus persicae [3] = assay: Insecticidal effect on larvae of Myzus persicae (Test Example 5); details: 500 ppm; Japanese radish leaves dipped in emulsion; 4th day after treatment at 25° C.
Procedure: Insecticidal Effect on Larvae of Myzus persicae:
Water was put in a screw bottle (volume: 10 ml), and a leafstalk of Japanese radish was placed therein and inoculated with 5 to 6 imagoes of Myzus persicae per leave. After the inoculation, the bottle was put in a glass cylinder (diameter: 3.5 cm; height: 15 cm) with a mesh cover, and the insects were let to proliferate in a thermostat kept at 25° C. for 3 days. […] The cylinder was maintained in the thermostat at 25° C., and the number of the insects on the leaves was counted on the 4th day after the treatment to obtain a death rate (%).

Plutella xylostella [4] = assay: Low concentration test, Plutella xylostella (Test Example 6)
Excerpt: Effects on the larvae of Plutella xylostella of compound Nos. 2 and 57 of the invention and, for comparison, the compound I described in an unexamined published Japanese patent application 63-316771 and the compounds II and III described in an unexamined published Japanese patent application 5-148240 were examined at varied concentrations. The results obtained are shown in Table 7 (the compound numbers in the Table correspond to the numbers in Table 1).

Myzus persicae [5] = assay: Low concentration test, Myzus persicae (Test Example 6)
Spodoptera litura [6] = assay: Low concentration test, Spodoptera litura (Test Example 6)

| Compound | Death Rate (%) (Nilaparvata lugens) | Death Rate (%) (Plutella xylostella [1]) | Death Rate (%) (Spodoptera litura [2]) | Death Rate (%) (Callosobruchus chinensis) | Death Rate (%) Plutella xylostella (Plutella xylostella [4]; 0.2 ppm) | Death Rate (%) Plutella xylostella (Plutella xylostella [4]; 0.8 ppm) | Death Rate (%) Plutella xylostella (Plutella xylostella [4]; 3.1 ppm) | Death Rate (%) Plutella xylostella (Plutella xylostella [4]; 12.5 ppm) | Death Rate (%) Plutella xylostella (Plutella xylostella [4]; 50 ppm) | Death Rate (%) Plutella xylostella (Plutella xylostella [4]; 200 ppm) | Death Rate (%) Myzus persicae (Myzus persicae [5]; 200 ppm) | Death Rate (%) Spodoptera litura (Spodoptera litura [6]; 12.5 ppm) | Death Rate (%) Spodoptera litura (Spodoptera litura [6]; 50 ppm) | Death Rate (%) Spodoptera litura (Spodoptera litura [6]; 200 ppm) | other results |
| --- | --- | --- | --- | --- | --- | --- | --- | --- | --- | --- | --- | --- | --- | --- | --- |
| N#Cc1nn(-c2c(Cl)cc(C(F)(F)F)cc2Cl)c(N)c1[S+]([O-])C(F)(F)F (stereo not shown) [IV, reference compound] |  |  |  |  |  |  |  |  |  |  |  |  |  |  | Death Rate (%) (CD-1 male mice): 80% |
| N#Cc1nn(-c2c(Cl)cc(C(F)(F)F)cc2Cl)c(NCc2ccccc2Cl)c1SC(F)(F)F [Compound 18] | 100% | 100% | 100% | 100% |  |  |  |  |  |  |  |  |  |  |  |
| N#Cc1nn(-c2c(Cl)cc(C(F)(F)F)cc2Cl)c(NCc2ccncc2)c1SC(F)(F)F [Compound 1, 1-(2,6-Dichloro-4-trifluoromethylphenyl)-3-cyano-4-trifluoromethylsulfenyl-5-(4-pyridylmethylamino)pyrazole] | 100% | 100% | 100% | 100% | 100% | 100% | 100% | 100% | 100% | 100% | 100% | 100% | 100% | 100% | Death Rate (%) (Myzus persicae [3]): 100%; Death Rate (%) Plutella xylostella (Plutella xylostella [4]; 0.05 ppm): 95%; Death Rate (%) Myzus persicae (Myzus persicae [5]; 12.5 ppm): 98%; Death Rate (%) Myzus persicae (Myzus persicae [5]; 50 ppm): 100%; Death Rate (%) Spodoptera litura (Spodoptera litura [6]; 3.1 ppm): 95% |
| CC(C)(C)c1ccc(CNc2c(SC(F)(F)F)c(C#N)nn2-c2c(Cl)cc(C(F)(F)F)cc2Cl)cc1 [Compound 5] | 100% |  |  | 100% |  |  |  |  |  |  |  |  |  |  |  |
| CC(C)Oc1ccc(CNc2c(SC(F)(F)F)c(C#N)nn2-c2c(Cl)cc(C(F)(F)F)cc2Cl)cc1 [Compound 8] | 100% | 100% |  | 100% |  |  |  |  |  |  |  |  |  |  |  |
| COc1ccc(CNc2c(SC(F)(F)F)c(C#N)nn2-c2c(Cl)cc(C(F)(F)F)cc2Cl)cc1 [Compound 7] | 100% | 100% | 100% | 100% |  |  |  |  |  |  |  |  |  |  |  |
| COc1cc(CNc2c(SC(F)(F)F)c(C#N)nn2-c2c(Cl)cc(C(F)(F)F)cc2Cl)ccc1O [Compound 2, 1-(2,6-Dichloro-4-trifluoromethylphenyl)-3-cyano-4-trifluoromethylsulfenyl-5-[(3-methoxy-4-hydroxyphenyl)methylamino]pyrazole] | 100% | 100% | 100% | 100% |  |  |  |  |  |  |  |  |  |  | Death Rate (%) (Myzus persicae [3]): 100%; Death Rate (%) (CD-1 male mice): 0% |
| N#Cc1nn(-c2c(Cl)cc(C(F)(F)F)cc2Cl)c(N=Cc2ccncc2)c1SC(F)(F)F [II] |  |  |  |  | 100% | 100% | 100% | 100% | 100% | 100% | 0% | 95% | 200% | 100% | Death Rate (%) Plutella xylostella (Plutella xylostella [4]; 0.05 ppm): 80%; Death Rate (%) Spodoptera litura (Spodoptera litura [6]; 3.1 ppm): 60% |
| Cn1cccc1CNc1c(SC(F)(F)F)c(C#N)nn1-c1c(Cl)cc(C(F)(F)F)cc1Cl [Compound 57] | 100% | 100% | 100% | 100% | 40% | 100% | 100% | 100% | 100% | 100% | 100% | 70% | 100% | 100% | Death Rate (%) (Myzus persicae [3]): 100%; Death Rate (%) Myzus persicae (Myzus persicae [5]; 12.5 ppm): 80%; Death Rate (%) Myzus persicae (Myzus persicae [5]; 50 ppm): 90% |
| Cn1cccc1C=Nc1c(SC(F)(F)F)c(C#N)nn1-c1c(Cl)cc(C(F)(F)F)cc1Cl [III] |  |  |  |  |  | 20% | 75% | 100% | 100% | 100% | 0% | 65% | 95% | 100% |  |
| COc1cc(CNc2c([S+]([O-])C(F)(F)F)c(C#N)nn2-c2c(Cl)cc(C(F)(F)F)cc2Cl)ccc1O (stereo not shown) [Compound 64] | 100% | 100% |  | 100% |  |  |  |  |  |  |  |  |  |  |  |
| CCCNc1c(SC(F)(F)F)c(C#N)nn1-c1c(Cl)cc(C(F)(F)F)cc1Cl [I] |  |  |  |  | 20% | 85% | 100% | 100% | 100% | 100% | 50% | 50% | 100% | 100% | Death Rate (%) Myzus persicae (Myzus persicae [5]; 3.1 ppm): 0%; Death Rate (%) Myzus persicae (Myzus persicae [5]; 12.5 ppm): 50%; Death Rate (%) Myzus persicae (Myzus persicae [5]; 50 ppm): 60%; Death Rate (%) Spodoptera litura (Spodoptera litura [6]; 3.1 ppm): 0% |
